Test results: DBAASP
≈ marks a conversion by molar mass, not a printed value. Each block holds one compound with its values, some of them ahead of it.

Experiments:
Experiment in all cases: ≥ marks a high value that may be exact or a test limit, other limits are often not marked, values filed in µg/mL are converted to µM
[1] = test system: Escherichia coli ATCC 25922
[2] = test system: Escherichia coli ATCC 43827
[3] = test system: Pseudomonas aeruginosa ATCC 27853
[4] = test system: Staphylococcus aureus ATCC 25923
[5] = test system: Escherichia coli ATCC 11775
[6] = test system: Enterococcus faecalis ATCC 29212
[7] = test system: Staphylococcus aureus ATCC 9144
[8] = test system: Escherichia coli DH5alpha
[9] = test system: Escherichia coli ATCC 10536
[10] = test system: Klebsiella pneumoniae ATCC 27736
[11] = test system: Bacillus subtilis ATCC 6633
[12] = test system: Pseudomonas aeruginosa ATCC BAA-427
Klebsiella pneumoniae = test system: Klebsiella pneumoniae
Escherichia coli ESBL = test system: Escherichia coli ESBL
[13] = test system: Candida albicans ATCC 90028
[14] = test system: Bacillus subtilis ATCC 19659
Candida krusei ATCC 6258 = test system: Candida krusei ATCC 6258
[15] = test system: Candida parapsilosis ATCC 22019
[16] = test system: Bordetella bronchiseptica CUN 11844-99
Yersinia pestis KIM pYV = test system: Yersinia pestis KIM pYV
[17] = test system: Escherichia coli ATCC 23716
[18] = test system: Pseudomonas aeruginosa CUN 4158-02
[19] = test system: Acinetobacter baumannii ATCC 19606
[20] = test system: Brucella abortus 9.49 (per-)
[21] = test system: Staphylococcus aureus ATCC 43300
[22] = test system: Micrococcus luteus NBRC 12708
[23] = test system: Staphylococcus aureus NBRC 12732
[24] = test system: Escherichia coli NBRC 14237
[25] = test system: Pseudomonas aeruginosa NBRC 12582
Escherichia coli JM109 = test system: Escherichia coli JM109
Staphylococcus aureus = test system: Staphylococcus aureus
[26] = test system: Staphylococcus aureus ATCC 6538P
[27] = test system: Enterobacter cloacae CGMCC 1.58
[28] = test system: Staphylococcus aureus AS1.72
Escherichia coli AS1.349 = test system: Escherichia coli AS1.349
[29] = test system: Lactococcus lactis AS1.1690
[30] = test system: Klebsiella aerogenes CGMCC 1.876
[31] = test system: Enterococcus faecalis CGMCC 1.595
[32] = test system: Enterococcus faecium CGMCC 1.2334
[33] = test system: Pseudomonas aeruginosa CGMCC 1.860
Bacillus cereus AS1.126 = test system: Bacillus cereus AS1.126
[34] = test system: Klebsiella pneumoniae subsp. pneumoniae CGMCC 1.176

SMILES: CC[C@H](C)[C@H](NC(=O)CN)C(=O)NCC(=O)N[C@@H](C)C(=O)N[C@H](C(=O)N[C@H](C(=O)N[C@@H](CCCCN)C(=O)N[C@H](C(=O)N[C@@H](CC(C)C)C(=O)N[C@H](C(=O)N[C@H](C(=O)NCC(=O)N[C@H](C(=O)N1CCC[C@H]1C(=O)N[C@@H](C)C(=O)N[C@H](C(=O)N[C@H](C(=O)N[C@@H](CO)C(=O)N[C@@H](Cc1c[nH]c2ccccc12)C(=O)N[C@H](C(=O)N[C@@H](CCCCN)C(=O)N[C@@H](CCCN=C(N)N)C(=O)N[C@@H](CCCCN)C(=O)N[C@@H](CCCN=C(N)N)C(=O)N[C@@H](CCC(N)=O)C(=O)N[C@@H](CCC(N)=O)C(N)=O)[C@@H](C)CC)[C@@H](C)CC)C(C)C)C(C)C)[C@@H](C)O)[C@@H](C)O)C(C)C)C(C)C)C(C)C [GIGAVVKVLTTGVPAVISWIKRKRQQ]
MIC [7]: 3 µM (≈ 8.41 µg/mL) | MIC [8]: 3.5 µM (≈ 9.82 µg/mL) | MIC [9]: 3.3 µM (≈ 9.25 µg/mL) | MIC [10]: 2.1 µM (≈ 5.89 µg/mL) | MIC [11]: 2.5 µM (≈ 7.01 µg/mL) | MIC [12]: 12 µM (≈ 33.7 µg/mL)

SMILES: CC(C)C[C@H](NC(=O)[C@H](CCCCN)NC(=O)CNC(=O)[C@H](CCCCN)NC(=O)[C@H](Cc1ccccc1)NC(=O)[C@H](CCCCN)NC(=O)[C@H](Cc1c[nH]c2ccccc12)NC(=O)[C@H](CCCN=C(N)N)NC(=O)[C@H](Cc1ccccc1)NC(=O)[C@H](CCCN=C(N)N)NC(=O)[C@H](CCCN=C(N)N)NC(=O)[C@H](Cc1ccc(O)cc1)NC(=O)[C@H](CO)NC(=O)[C@H](CCCCN)NC(=O)CN)C(=O)N[C@@H](Cc1ccccc1)C(=O)N[C@@H](CC(C)C)C(=O)N[C@@H](Cc1ccccc1)C(=O)NCC(N)=O [GKSYRRFRWKFKGKLFLFG]
MIC (Klebsiella pneumoniae): 6.61 µM (≈ 16 µg/mL) | MIC (Escherichia coli ESBL): 4.67 µM (≈ 11.3 µg/mL)

SMILES: CC[C@H](C)[C@H](NC(C)=O)C(=O)N[C@@H](Cc1ccccc1)C(=O)NCC(=O)N[C@@H](C)C(=O)N[C@H](C(=O)N[C@@H](Cc1c[nH]c2ccccc12)C(=O)N1CCC[C@H]1C(=O)N[C@@H](CC(C)C)C(=O)N[C@@H](C)C(=O)N[C@@H](CC(C)C)C(=O)NCC(=O)N[C@@H](C)C(=O)N[C@@H](CC(C)C)C(=O)N[C@@H](CCCCN)C(=O)N[C@@H](CC(N)=O)C(=O)N[C@@H](CC(C)C)C(=O)N[C@H](C(=O)N[C@@H](CCCCN)C(N)=O)[C@@H](C)CC)[C@@H](C)CC [IFGAIWPLALGALKNLIK]
MIC [13]: ≥ 32 µM | MIC [1]: 128 µM (≈ 253 µg/mL) | MIC [14]: 4 µM (≈ 7.92 µg/mL) | MIC [3]: > 128 µM | MIC (Candida krusei ATCC 6258): ≥ 125 µM | MIC [4]: 4 µM (≈ 7.92 µg/mL) | MIC [15]: ≥ 125 µM

SMILES: CC[C@H](C)[C@H](N)C(=O)N[C@@H](CO)C(=O)N[C@@H](CCCCN)C(=O)N[C@@H](CCCN=C(N)N)C(=O)N[C@H](C(=O)N[C@@H](CC(C)C)C(=O)N[C@H](C(=O)NCC(=O)N[C@@H](CCCCN)C(=O)N[C@@H](CCCCN)C(N)=O)[C@@H](C)O)[C@@H](C)CC [ISKRILTGKK]
MIC [1]: > 224 µM | MIC [16]: ≥ 224 µM | MIC (Yersinia pestis KIM pYV): ≥ 224 µM | MIC [17]: ≥ 224 µM | MIC [18]: ≥ 224 µM | MIC [19]: > 224 µM | MIC [20]: ≥ 56 µM | MIC [21]: > 224 µM

SMILES: CSCC[C@H](NC(=O)[C@H](CCCN=C(N)N)NC(=O)[C@H](Cc1c[nH]c2ccccc12)NC(=O)[C@H](CCC(N)=O)NC(=O)[C@H](Cc1c[nH]c2ccccc12)NC(=O)[C@H](CCCN=C(N)N)NC(=O)[C@@H](N)CCCN=C(N)N)C(=O)N[C@@H](CCCCN)C(=O)N[C@@H](CCCCN)C(=O)N[C@@H](CC(C)C)C(=O)NCC(=O)O [RRWQWRMKKLG]
MIC [1]: 15 µM (≈ 23.2 µg/mL) | MIC [2]: 7 µM (≈ 10.8 µg/mL) | MIC [3]: 15 µM (≈ 23.2 µg/mL) | MIC [4]: 30 µM (≈ 46.3 µg/mL) | MIC [5]: 15 µM (≈ 23.2 µg/mL)

SMILES: NC(N)=NCCC[C@H](NC(=O)[C@H](CCCN=C(N)N)NC(=O)[C@H](Cc1c[nH]c2ccccc12)NC(=O)[C@H](Cc1ccccc1)NC(=O)[C@H](CCCN=C(N)N)NC(=O)[C@H](CCCN=C(N)N)NC(=O)[C@H](Cc1c[nH]c2ccccc12)NC(=O)[C@@H](N)CCCN=C(N)N)C(=O)O [RWRRFWRR]
MIC [27]: ≥ 100 µM | MIC [28]: 6.25 µM (≈ 8.24 µg/mL) | MIC (Escherichia coli AS1.349): ≥ 50 µM | MIC [29]: 6.25 µM (≈ 8.24 µg/mL) | MIC [30]: ≥ 100 µM | MIC [31]: 12.5 µM (≈ 16.5 µg/mL) | MIC [32]: 12.5 µM (≈ 16.5 µg/mL) | MIC [33]: 6.25 µM (≈ 8.24 µg/mL) | MIC (Bacillus cereus AS1.126): 3.13 µM (≈ 4.13 µg/mL) | MIC [34]: ≥ 100 µM

Continued, values first:

MIC [1]: 24 µM (≈ 47.1 µg/mL) | MIC [2]: 12 µM (≈ 23.5 µg/mL) | MIC [3]: 48 µM (≈ 94.2 µg/mL) | MIC [4]: 48 µM (≈ 94.2 µg/mL) | MIC [5]: ≥ 48 µM | MIC [6]: 48 µM (≈ 94.2 µg/mL)
SMILES: CSCC[C@H](NC(=O)[C@H](CCCN=C(N)N)NC(=O)[C@H](Cc1c[nH]c2ccccc12)NC(=O)[C@H](CCC(N)=O)NC(=O)[C@H](Cc1c[nH]c2ccccc12)NC(=O)[C@H](CCCN=C(N)N)NC(=O)[C@H](CCCN=C(N)N)NC(=O)[C@H](C)NC(=O)[C@H](CCCCN)NC(=O)[C@@H](N)Cc1ccccc1)C(=O)N[C@@H](CCCCN)C(=O)N[C@@H](CCCCN)C(=O)N[C@@H](CC(C)C)C(=O)NCC(=O)N[C@@H](C)C(=O)O [FKARRWQWRMKKLGA]

MIC [22]: 25 µM (≈ 37 µg/mL) | MIC [23]: 12.5 µM (≈ 18.5 µg/mL) | MIC [24]: 12.5 µM (≈ 18.5 µg/mL) | MIC [25]: ≥ 50 µM
SMILES: CC[C@H](C)[C@H](NC(=O)CNC(=O)[C@H](C)NC(=O)[C@H](CC(C)C)NC(=O)[C@H](CC(C)C)NC(=O)CNC(=O)[C@@H]1CCCN1C(=O)[C@H](CC(C)C)NC(=O)[C@H](CC(C)C)NC(=O)[C@H](CC(N)=O)NC(=O)[C@H](CC(C)C)NC(=O)[C@H](CC(C)C)NC(=O)[C@@H](N)CCCCN)C(=O)N[C@@H](Cc1ccccc1)C(N)=O [KLLNLLPGLLAGIF]

MIC (Escherichia coli JM109): 24.6 µM (≈ 32 µg/mL) | MIC (Staphylococcus aureus): > 49.1 µM | MIC [26]: 5.76 µM (≈ 7.49 µg/mL)
SMILES: CC[C@H](C)[C@H](NC(=O)[C@H](C)NC(=O)[C@H](CC(C)C)NC(=O)[C@H](CS)NC(=O)[C@H](CCCN=C(N)N)NC(=O)[C@H](C)NC(=O)[C@H](C)NC(=O)[C@H](CS)NC(=O)[C@@H](N)CC(C)C)C(=O)NCC(=O)N[C@@H](CCCN=C(N)N)C(=O)N[C@@H](CCCN=C(N)N)C(N)=O [LCAARCLAIGRR]
